Measurements published in patent US12329828B2, “Pyrimidine nucleoside compounds for fluorescence imaging and spectroscopy” (San Diego State University Foundation, priority 2020, dated 2025).
“And” between values parts separate entries of the source, which are not always exact repeats. Identical values can stand only once. Marks after values point to notes of the source that are not given here.

Tests used:
Type in all cases: physicochemical
[1] = Melting temperatures of ABN-containing oligonucleotides (temperature-dependent circular dichroism); conditions: for Tm: ABN-containing hairpin or duplex
Source text: Temperature-dependent circular dichroism measurements of all six duplexes are consistent with the B-DNA conformation with only minimal perturbation (Table 2). Except in the ODN1 hairpin, where ABN is expected to be mostly solvent exposed, the melting temperatures of the duplexes are typically somewhat depressed as compared with their natural counterparts. Duplex stability is lowest when ABN has 5′-G and 3′-C neighbors, an observation consistent with other tricyclic FBAs, especially those that are electron-rich. The observed melting temperatures provide little indication of whether ABN is a better T- or C-surrogate.

[2] = Steady-state photophysical measurements of ABN in single-stranded and duplex DNA oligonucleotides
Source text: Next, we measured the fluorescence of ABN in single-stranded and duplex DNA oligonucleotides to determine how base pairing and stacking influence its photophysical properties (Table 2). ABN increases its fluorescence to Φem=0.50-0.53 in matched duplex DNA oligonucleotides when base paired with A and Φem=0.55 when the analogue is present in the hairpin loop of ODN1. The quantum yield is less, 0.40 and 0.29, in ODN1:ODN3 and ODN4:ODN6 respectively, in which ABN is base paired with G. In ODN7:ODN9 Φem,=0.55, slightly greater than when base paired with A. In all of these single-stranded and duplex sequences, ABN is brighter than any other known FBA when present in oligonucleotides.
(§1) Quantum yields measurements. Experiments were measured in a quartz sub-micro cuvette (10 mm path length) purchased from Starnacell Inc. Steady state emission scans were recorded using a PTI QuantaMaster QM-400 and absorbances were measured on a Shimadzu UV-1700 Pharmaspec spectrometer. Quantum yield measurements were performed the comparative method of Williams et. al. and measured in duplicate, at minimum. Coumarin 153 in ethanol was used as a reference standard for all photophysical measurements. All measurements were taken with an absorbance range of 0.01-0.1. Subsequent dilutions were performed stepwise in order to obtain a minimum of six absorbance and emission spectra for quantum yield determinations.

[3] = Two-photon single-molecule characterization (fluorescence correlation spectroscopy)
Source text: Single-molecule fluorescence measurements. Given the very attractive bulk-level photophysical properties of ABN in solution, we next investigated its potential as a single-molecule probe. […] In a later study, the base analogue DMA^thaU was detected as a free nucleoside at the single-molecule level for the first time via multiphoton excitation with a brightness of […] per molecule following three-photon excitation (see Phys. Chem. Chem. Phys. 2018, 20 (45), 28487; and J. Phys. Chem. Lett. 2019, 10 (17), 5008). […] The 2P brightness was measured using fluorescence correlation spectroscopy (FCS) and found to match that of DMA^thaU at 7 kHz per molecule (FIG. 3B).
Sample preparation for 2P method. All experiments were done with a solution of approximately 100 nM of ABN in TRIS buffer (20 mM TRIS base) at a pH of 7.5. The molecules were initially dissolved in DMSO (at a concentration of 100 μM) and subsequently diluted in buffer. The TRIS buffer was prepared with ultrapure water (Direct Q3, Merck Millipore), TRIS-base (20 mM, Trizma base, BioUltra, Sigma-Aldrich) and 150 mM NaCl (analytical reagent grade, Fluka). The pH was adjusted to 7.5 with a HCl solution (Sigma-Aldrich). Prior to sample preparation, the buffer was filtered with activated charcoal (Darco, Fluca) and through a 0.2 μm filter (Milex, Merck).
Two photon microscope. The two-photon microscope is a homebuilt pulse-shaper assisted setup with a ultra-broadband Ti:Sa laser as light source, recently described (R. S. Fisher, et al., Phys. Chem. Chem. Phys., 20, 28487 (2018)). The excitation source was a broadband Ti: Sapphire laser with a repetition rate of 80 MHz and a spectrum centered on 800 nm with a FWHM of 135 nm (Vitara UBB, Coherent). […] Sample fluorescence was collected by the same objective and transmitted through a dichroic mirror (Chroma 675dcspxr) and a short pass filter (Semrock FF01-650/SP), split by a polarising beamsplitter cube and detected by two avalanche photodiodes (MPD PDM 50c and 1MPD $PD-050-CTB). The signal was subsequently detected by a hardware correlator (ALV-7002, ALV GmbH).

[4] = Steady-state absorption and fluorescence of the ABN nucleoside in solvents
Source text: Photophysical properties. Steady-state measurements. […] Owing to the conjugated push-pull system in the design of ABN, the absorption and emission wavelengths are the longest known for a FBA designed to be capable of Watson-Crick hydrogen bonding. Recorded emission spectra in water using excitation wavelengths ranging from 310-500 nm are nearly superposable, as are excitation spectra recorded for emission wavelengths spanning 500-650 nm. These observations support the predominance of a single tautomeric form in dilute, aqueous solution.
as §1

[5] = One-photon single-molecule total internal reflection fluorescence (smTIRF) microscopy
Source text: The red-shifted absorption profile, high 2P brightness and predominance of the bright state made ABN a promising candidate for single-molecule detection via 1P excitation. […] Furthermore, these fluorescent puncta underwent single-step photobleaching under constant irradiation (FIG. 4B), consistent with the idea that ABN has suitable optical properties to be used as a single-molecule fluorescent nucleoside. By quantifying >2000 individual trajectories, we were able to determine the mean total detected photon value of 5300±1800 photons per molecule; furthermore, a mean of 1500±600 photons were detected per 100 ms integration from each molecule at a power density of 0.2 kW cm^−2.
Sample and slide preparation for IP method. ABN (10 mM, DMSO) was diluted into filtered (0.2 μm syringe filter, Whatman, 6780-1302) PBS (pH 7.4) to a working concentration of 100 nM. Borosilicate glass coverslips (VWR Int, 22×22 mm) were cleaned for 1 hour using an argon plasma (PDC-002, Harrick Plasma). Frame-Seal slide chambers (9×9 mm^2, Biorad, Hercules, CA) were affixed to the glass and the slides washed three times with filtered PBS (3×50 μL). The working solution of ABN (100 nM, 50 μL) was added to the slide and left for 3-minutes allowing for some of the ABN molecules to adsorb to the plasma-cleaned glass surface. […]
Single-molecule imaging. Single-molecule fluorescence imaging of ABN was performed on a bespoke total internal reflection fluorescence microscope using a 488 nm continuous wavelength diode laser (iBeamSMART, Toptica, 200.46 Wcm^−2). […] Fluorescence emission was collected by the same objective lens and separated from excitation light using a dichroic mirror (Di01-R405/488/561/635, Semrock) and passed through appropriate emission filters (BLP01-488R-25, FF01-520/44-25, Semrock). The fluorescence was then expanded (1.5×) and focused onto an electron-multiplying charge-coupled device (EMCCD, Evolve 512 Delta, Photometrics) with an electron multiplication gain of 250 ADU/photon operating in frame transfer mode. […]
Data analysis. A custom ImageJ macro was used to determine the total number of photons detected from single ABN emitters. The frames from single-molecule movies were summed and the pixel of peak intensity from each molecule was determined using the inbuilt ‘Find Maxima’ function (prominence threshold=20,000). The single emitters were selected from a 6×6 region surrounding the pixel of peak intensity and the total integrated intensity of the region was measured. […] The intensity per ABN emitter was converted from counts to photons detected by dividing the integrated signal above background by the total gain of the EMCCD (35.7 ADU/photon).

[6] = Steady-state photophysical measurements of ABN in single-stranded and duplex DNA oligonucleotides; conditions: 1×PBS buffer (pH 7.4), different concentrations
[7] = ABN in DNA oligonucleotide, 1×PBS buffer (pH 7.4)
[8] = Tm of ABN-containing duplex − Tm of corresponding duplex with canonical thymidine in place of ABN

With “ODN1:ODN3: duplex of ODN1 with ODN3 (HairpinG, SEQ ID NO: 5); ABN base paired with G (chain 1 GCTTAGCAGGNTAGTGCTAAGC; chain 2 GCTTAGCACTAGCCTGCTAAGC; ABN nucleoside, chemistry not fully specified)” the Tm [1] was 61.3 ± 0.6 °C, the ΔTm ([1]; comparison with Tm of the corresponding natural duplex with a C:G base pair) was “+1.6^c ° C” and the Φem [2, 7] was 0.40. For the same compound, the “λabs, max” value [2, 7] was 468 nm and the “λem, max” value [2, 7] was 523 nm.

In the case of “ODN4: 10-mer CGC AAX ATC G (SEQ ID NO: 2), X = ABN (ABN nucleoside, as printed in the source, key not given here)”, the Φem [2, 7] is reported as 0.49, the “λabs, max” value [2, 7] is reported as 452 nm and the “λem, max” value [2, 7] is reported as 540 nm.

For CCN(CC)c1ccc2cc3cc([C@H]4C[C@@H](O)[C@@H](CO)O4)c(=O)nc-3[nH]c2c1 [ABN, 8-(diethylamino)-3-((2R,4R,5R)-4-hydroxy-5-(hydroxymethyl)tetrahydrofuran-2-yl)benzo[b][1,8]naphthyridin-2(10H)-one], the “bright/dark state by controlled dilution” value ([3]; FCS, controlled dilution) was “exclusively in a bright state”, the “2P brightness (average count rate per molecule)” value ([3]; FCS, two-photon excitation, 100 nM in TRIS buffer, excitation power 11 mW) was 7 kHz per molecule and 7±0.5 kHz per molecule and the “fraction of compound in a bright state” value ([3]; single-molecule fluorescence measurements) was greater than 95%. For the same compound, the “λem, max” value [4] was 540 nm, the ε · Φem (brightness) ([4]; 1,4-dioxane) was 19000 M⁻¹ cm⁻¹ and the “λem, max” value ([4]; 1,4-dioxane) was 474 nm. The “λex, max” value ([4]; 1,4-dioxane) was 420 nm, the Φem ([4]; 1,4-dioxane, emission 474 nm) was 0.64 and the Φem ([4]; 1 × PBS pH 7.4) was 0.39. The “λex, max” value ([4]; 1 × PBS pH 7.4) was 442 nm, the ε · Φem (brightness) ([4]; H2O) was 7800 M⁻¹ cm⁻¹ and the “λem, max” value ([4]; H2O) was 540 nm. For the same compound, the “λex, max” value ([4]; H2O) was 442 nm, the Φem ([4]; H2O, emission 540 nm) was 0.39 and the “red shift of absorption relative to closest competitors on brightness (pA, coumarin nucleoside)” value ([4]; aqueous solution) was “more than 50 nm”. The “red shift of emission relative to closest competitors on brightness (pA, coumarin nucleoside)” value ([4]; aqueous solution) was greater than 80 nm, the Φem ([2]; in matched duplex DNA oligonucleotides, base paired with A) was 0.50-0.53 and the mean total on-time ([5]; 0.2 kW cm^−2) was 0.35 ± 0.18 s. For the same compound, the “mean number of photons detected per frame per single molecule” value ([5]; 488 nm, 0.2 kW cm^−2, 100 ms integration) was 1500±600 photons/100 ms, the “mean total number of photons detected per single molecule” value ([5]; 488 nm, 0.2 kW cm^−2, log-normal fit, N=2402 molecules) was 5300±1800 photons and the “brightness following 1P excitation” value ([5]; one-photon excitation) was 15 kHz per molecule.

“ODN1:ODN2: duplex of ODN1 with ODN2 (HairpinA, SEQ ID NO: 4); ABN base paired with A (chain 1 GCTTAGCAGGNTAGTGCTAAGC; chain 2 GCTTAGCACTAACCTGCTAAGC; ABN nucleoside, chemistry not fully specified)” showed a Tm [1] of 61.8 ± 0.4 °C, a ΔTm [1, 8] of −4.7 °C and a Φem [2, 7] of 0.53. For the same compound, the “λabs, max” value [2, 7] was 440 nm and the “λem, max” value [2, 7] was 530 nm.

With “ODN1: hairpin GCT TAG CAG GXT AGT GCT AAG C (SEQ ID NO: 1), X = ABN in loop (GCT TAG CAG GXTAGT GCT AAG C; ABN abasic-like nucleoside in loop, as printed in the source, key not given here)” the Tm [1] was 63.6 ± 0.6 °C, the ΔTm [1, 8] was “+3.1 °C” and the Φem [2, 7] was 0.55. For the same compound, the “λabs, max” value [2, 7] was 450 nm and the “λem, max” value [2, 7] was 530 nm.

With “ODN7: 10-mer CGC AGX CTC G (SEQ ID NO: 3), X = ABN (ABN nucleoside, as printed in the source, key not given here)” the “concentration dependence of absorption spectra” value [6] was “concentration dependent”, the Φem [2, 7] was 0.62 and the “λem, max” value [2, 7] was 532 nm.
